# Measured values published in PMC2565697, “HLA Class I-T Cell Epitopes from trans-Sialidase Proteins Reveal Functionally Distinct Subsets of CD8^+ T Cells in Chronic Chagas Disease” (PLoS Neglected Tropical Diseases, 2008).
# Ends that are not written are not given here.
# Target: HLA-A2.1 molecule (Homo sapiens, UniProt P04439, D140Y/D185E/D98H/E176V/E277Q/G131W/G231S/I119V/I121R/I166T/I218V/L300P/L318F/N151K/N90K/P208A/P217A/Q86G/Q94H/R138H/R169H/T345S)
# Experiment: HLA-A class I binding assay (competitive inhibition of radiolabeled probe peptide)
# Conditions: competitive inhibition of binding of radiolabeled standard probe peptide to purified detergent-solubilized HLA-A2.1
row,Sequence,IC50 [µM]
1,LLGLWGLATA [Ts 6],0.024
2,FVDYNFSLV [Ts 47],0.0011
3,LLGLWGTAAL [Ts 13],0.499
4,FTNNKFTLS [Ts 68],> 50
5,ELLRPTTLV [Ts 52],2.41
6,IANYNFTLV [Ts 56],29.6
7,FVNHRFTLV [Ts 37],0.304
8,LLGLWVFAAL [Ts 2],0.036
9,RLLPSLLLLL [Ts 4],0.0008
10,FLSHDFTLV [Ts 24],0.00046
11,FANYNFTLL [Ts 51],1.5
12,FANYKFTLV [Ts 44],0.049
13,FANYNFTLV [Ts 48],0.00047
14,FANNKFTLV [Ts 43],0.116
15,RVSRPTTVV [Ts 58],2.49
16,GLLPSLLLLL [Ts 3],0.0031
17,SLSHYFTLVF [Ts 26],0.0016
18,FANHKFTLV [Ts 38],0.148
19,FVNYNFTLV [Ts 45],0.00025
20,FANHDFTLV [Ts 34],0.101
21,FLSHNFTLVF [Ts 27],0.00061
22,FVSCDFTIV [Ts 35],0.03

# Test system: PBMC from HLA-A2.1+ patients with chronic Chagas disease
# Experiment: IFN-γ ELISPOT with individual HLA-A0201-binding ts peptides in HLA-A2.1+ subjects
# Assay type: cell-based, human
# Conditions: HLA-A2.1+ patients group G0, peptide 10 µg/ml, 4×10^5 PBMC/well, 16–20 hr, positive: >=25 SFCs/10^6 PBMC and at least twice media alone
row,Sequence,"No. of positive responders/total no. of subjects assayed (%), G0"
1,FTNNKFTLS [Ts 68],0/6

# Same assay, conditions: HLA-A2.1+ patients group G1, peptide 10 µg/ml, 16–20 hr
row,Sequence,"No. of positive responders/total no. of subjects assayed (%), G1"
1,FTNNKFTLS [Ts 68],0/5

# Same assay, conditions: HLA-A2.1+ patients group G2/G3, peptide 10 µg/ml, 16–20 hr
row,Sequence,"No. of positive responders/total no. of subjects assayed (%), G2/G3"
1,FTNNKFTLS [Ts 68],0/8

# Test system: PBMC from chronic Chagas disease subjects
# Experiment: IFN-γ ELISPOT with supertype peptide pools, single peptides or lysate in non-HLA-typed G0 subjects
# Assay type: cell-based, human
# Conditions: single peptides 10 µg/ml, representative results from single individuals, media alone subtracted (media alone 13±10)
# Description: The number of peptide-specific IFN-γ and IL-2-secreting T cells was determined by ex vivo ELISPOT using commercial kits (Becton & Dickinson, San Diego, CA). Cryopreserved PBMC from chronic chagasic subjects were seeded in triplicate wells at a concentration of 4×10^5/well, and stimulated with individual peptides (10 µg/ml), peptide pools (7–13 peptides per pool, 5 µg/ml/peptide) comprising HLA A01 (2 pools), A02 (2 pools), A03 (2 pools), A24 (2 pools), B07 (1 pool) or B44 (1 pool)-binding peptides or T. cruzi lysate (10 µg/ml) for 16–20 hr at 37°C and 5% CO2. For controls, cells were incubated with complete RPMI, A2-restricted HIV Pol (amino acids 510–518: […]), A2-restricted flu matrix 1 (amino acids 58–66: […]) or 50 ng/ml […] and 500 nM ionomicin (Sigma). Spot forming cells (SFCs) were automatically enumerated using ImmunoSpot analyzer (CTL).
# The mean number of SFCs in triplicate wells was obtained for each condition, and the number of specific IFN-γ and IL-2-secreting T cells (net SFCs), was calculated by subtracting the value of the wells containing media alone from the peptide/mitogen-stimulated spot count. Responses were considered significant if a minimum of 25 SFCs/1×10^6 PBMC were present per well, and additionally, this number was at least twice the value of wells with media alone.
# The number of annotated T. cruzi genes containing supertype-binding epitopes was then used to prioritize peptides to be assessed for recognition by CD8^+ T cells from a group of non-HLA-typed chagasic subjects (Table 2). IFN-γ ELISPOT responses to peptide pools containing a total of ninety-six epitopes representing HLA A01 (18 epitopes), HLA A02 (20 epitopes), HLA A03 (20 epitopes), HLA A24 (14 epitopes), HLA B07 (11 epitopes) and HLA-B44 (13 epitopes) supertypes were evaluated in 25 chronic Chagas disease subjects without clinical and radiological evidence of heart disease (G0 status) regardless of their HLA type. […] Four subjects had positive responses to more than one supertype (3 of these subjects recognized both HLA-A02 and HLA-A03-binding peptides, Fig. 1). It is noteworthy that responses to HLA-A02 and HLA03 supertype-restricted epitopes covered 77% of the total responses detected, consistent with the high worldwide frequency of these alleles.
row,Sequence,No. Net IFN-γ SFCs/10^6 PBMC [SFCs/10^6 PBMC]
1,VTDNNRSFY,30
2,HLFYSAVLL,40
3,LLLGLWGFA,30
4,LVTLPVYSK,15
5,RVLLLLLLGL,20
6,FLYNRPLNS,18
7,FTSAVLLLL,25
8,VALMLQGNK,18
9,MLVTLPVYS,15
10,ITATIEGRK,50
11,FTLVASVTI,35
12,NVMLVTLPV,18
13,MLSRVAAVK,38
14,FQGAWAEWPV,32
15,LWLTDNTHI,463
16,LLLLVVMMCC,18
17,FTLVATVSI,70
18,FVSPSLVSA,18
19,IYMLVGKYS,65
20,AVAEAQCKK,18
21,HNFTLVASV,15
22,TSAVLLLLVV,18
